The text below walks through data of patent publication US10556922B2, “Crystalline and amorphous forms of 17-alpha-hydroxyprogesterone caproate” (AMAG Pharmaceuticals, Inc., priority 2015, dated 2020).

Data set [1] is described as follows: Solution-mediated transformation studies (relative physical stability of Form A and Form B versus temperature). In kind it is physicochemical. The procedure:
Solution-mediated transformation studies were conducted to establish the relative physical stability of Form A and Form B versus temperature. Excess solid was suspended in a slurry using various solvents, including mixtures of benzyl benzoate and castor oil. After equilibration times of 1 day to two weeks, the excess solid was filtered and analyzed by powder x-ray diffraction to determine the crystalline form.

Data set [2] is described as follows: Solubility of crystalline HPC in organic solvents. It is filed as physicochemical. Particulars: organic solvent or mixture, 25° C.

Converted amounts (≈) assume the structure as drawn. Like-named read-outs stand apart in the source and are kept apart here.

As for `CCCCCC(=O)O[C@]1(C(C)=O)CC[C@H]2[C@@H]3CCC4=CC(=O)CC[C@]4(C)[C@H]3CC[C@@]21C` [Form B, 17-α-hydroxyprogesterone caproate], the relative physical stability entry is reported as “more stable (less soluble)” in data set [1] (below 27° C.) and “likely to be more stable” in data set [1] (below room temperature, additional studies). Further, in data set [1] (storage temperatures of room temperature (20-25° C.) or below (refrigeration)), the “physical stability on storage” value is “physically stable polymorph”.
Take `CCCCCC(=O)O[C@]1(C(C)=O)CC[C@H]2[C@@H]3CCC4=CC(=O)CC[C@]4(C)[C@H]3CC[C@@]21C` [Form A, 17-α-hydroxyprogesterone caproate]: the solubility in data set [2] (ethanol, read-out: solubility in ethanol) is about 118 mg/mL (≈ 275 mM); in data set [2] (ethyl acetate, read-out: solubility in ethyl acetate) it was about 419 mg/mL (≈ 978 mM); in data set [2] (isopropanol, read-out: solubility in isopropanol) it was about 91 mg/mL (≈ 212 mM); in data set [2] (methanol, read-out: solubility in methanol) it was about 142 mg/mL (≈ 331 mM). For the same compound, the relative physical stability entry in data set [1] (above 35° C.) was “more stable (less soluble)”.
